Reference: ChEMBL document CHEMBL3627691, “Structure activity relationships of benzyl C-region analogs of 2-(3-fluoro-4-methylsulfonamidophenyl)propanamides as potent TRPV1 antagonists” (Bioorg Med Chem, 2015)

Experiments:
[1] = target: T1, Transient receptor potential cation channel subfamily V member 1 (Homo sapiens, UniProt Q8NER1); experiment: Antagonist activity at human TRPV1 heterologously expressed in CHO cells assessed as inhibition of capsaicin-induced activation by FLIPR assay; assay type: cell-based
[2] = target: T1, Transient receptor potential cation channel subfamily V member 1; experiment: Antagonist activity at human TRPV1 heterologously expressed in CHO cells assessed as inhibition of low 45 degC heat -induced activation; assay type: cell-based
[3] = system: Mus musculus; experiment: Induction of hyperthermia in mouse at 0.3 and 3 mg/kg, po; conditions: in vivo
[4] = system: Mus musculus; experiment: Analgesic activity in Bennett mouse model of neuropathic pain assessed as reduction of CCI-induced cold allodynia at 0.0001 to 100 mg/kg, po; assay type: functional, organism-based
[5] = system: Mus musculus; experiment: Inhibition of capsaicin-induced hypothermia in mouse at 3 mg/kg, po administered 15 mins prior to capsaicin challenge measured 30 mins post capsaicin challenge; assay type: functional
[6] = system: Mus musculus; experiment: Inhibition of capsaicin-induced hypothermia in mouse at 0.3 and 3 mg/kg, po administered 15 mins prior to capsaicin challenge measured 30 mins post capsaicin challenge; assay type: functional, organism-based
[7] = target: T1, Transient receptor potential cation channel subfamily V member 1; experiment: Antagonist activity at human TRPV1 heterologously expressed in CHO cells assessed as inhibition of NADA-induced activation by FLIPR assay; assay type: cell-based
[8] = target: T1, Transient receptor potential cation channel subfamily V member 1; experiment: Antagonist activity at human TRPV1 heterologously expressed in CHO cells assessed as inhibition of low pH-induced activation; assay type: cell-based
[9] = system: Mus musculus; experiment: Analgesic activity in Bennett mouse model of neuropathic pain assessed as reduction of CCI-induced cold allodynia at 10 mg/kg, po; assay type: functional
[10] = system: Mus musculus; experiment: Inhibition of capsaicin-induced hypothermia in mouse at 0.3 mg/kg, po administered 15 mins prior to capsaicin challenge measured 30 mins post capsaicin challenge; assay type: functional

T1 sequence (Q8NER1 whole entry): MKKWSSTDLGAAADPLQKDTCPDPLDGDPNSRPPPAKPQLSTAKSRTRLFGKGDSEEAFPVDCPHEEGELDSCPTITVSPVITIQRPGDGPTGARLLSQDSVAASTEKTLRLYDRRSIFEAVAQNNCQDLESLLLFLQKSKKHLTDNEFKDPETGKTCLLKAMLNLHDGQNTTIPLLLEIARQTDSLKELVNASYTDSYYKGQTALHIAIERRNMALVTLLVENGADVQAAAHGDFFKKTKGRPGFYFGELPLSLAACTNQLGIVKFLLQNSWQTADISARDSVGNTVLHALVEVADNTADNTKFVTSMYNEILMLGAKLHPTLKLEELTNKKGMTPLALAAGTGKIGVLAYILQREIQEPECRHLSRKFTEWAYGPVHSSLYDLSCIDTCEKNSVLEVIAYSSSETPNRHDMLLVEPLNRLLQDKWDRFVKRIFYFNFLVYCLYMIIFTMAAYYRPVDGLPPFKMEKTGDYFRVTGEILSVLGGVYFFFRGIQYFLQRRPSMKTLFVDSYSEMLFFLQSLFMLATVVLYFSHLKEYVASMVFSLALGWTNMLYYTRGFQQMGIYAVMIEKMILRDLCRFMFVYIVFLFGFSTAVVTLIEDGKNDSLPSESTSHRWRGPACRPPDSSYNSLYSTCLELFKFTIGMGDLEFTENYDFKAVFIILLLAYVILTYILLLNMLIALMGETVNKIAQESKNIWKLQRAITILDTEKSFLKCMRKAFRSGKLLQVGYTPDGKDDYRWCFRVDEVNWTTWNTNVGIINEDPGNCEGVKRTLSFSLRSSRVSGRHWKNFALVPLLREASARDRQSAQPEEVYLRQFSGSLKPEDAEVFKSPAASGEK

| Ki ([1]; read-out: Ki) [nM] | Compound | further results |
| --- | --- | --- |
| 0.6 | CC(C(=O)NCc1ccc(C(F)(F)F)cc1C1CCCCC1)c1ccc(NS(C)(=O)=O)c(F)c1 (stereo not given) | – |
| 1 | CC(C(=O)NCc1ccc(C(F)(F)F)cc1-c1cccc(Cl)c1)c1ccc(NS(C)(=O)=O)c(F)c1 (stereo not given) | – |
| – | CC(C(=O)NCc1ccc(C(F)(F)F)cc1[N+](=O)[O-])c1ccc(NS(C)(=O)=O)c(F)c1 (stereo not given) | Ki ([1]; cho): Not Active |
| 1.2 | CCCCN(C)c1cc(C(F)(F)F)ccc1CNC(=O)C(C)c1ccc(NS(C)(=O)=O)c(F)c1 (stereo not given) | – |
| 1.1 | CC(C(=O)NCc1ccc(C(F)(F)F)cc1SCc1ccc(Cl)cc1)c1ccc(NS(C)(=O)=O)c(F)c1 (stereo not given) | – |
| 0.5 | CC(C(=O)NCc1ccc(C(F)(F)F)cc1OCc1ccc(F)cc1)c1ccc(NS(C)(=O)=O)c(F)c1 (stereo not given) | – |
| 0.4 | CC(C(=O)NCc1ccc(C(F)(F)F)cc1N1CCC(Cc2ccc(F)cc2)CC1)c1ccc(NS(C)(=O)=O)c(F)c1 (stereo not given) | – |
| 0.3 | CC(C(=O)NCc1ccc(C(F)(F)F)cc1SC1CCCC1)c1ccc(NS(C)(=O)=O)c(F)c1 (stereo not given) | IC50 [2]: 37.2 nM; Activity [3]: Non-toxic; Activity [4]: Dose-dependent effect; inhibition in vivo at 3 mg/kg [5]: 80%; inhibition [6]: Dose-dependent effect; Ki [7]: 0.03 nM; IC50 [8]: 32 nM; MPE [9]: 48%; inhibition in vivo at 0.3 mg/kg [10]: 38% |
| 2.3 | CCCCCSc1cc(C(F)(F)F)ccc1CNC(=O)C(C)c1ccc(NS(C)(=O)=O)c(F)c1 (stereo not given) | – |
| 0.4 | CCCCCCc1cc(C(F)(F)F)ccc1CNC(=O)C(C)c1ccc(NS(C)(=O)=O)c(F)c1 (stereo not given) | – |
| 0.5 | CC(C)CCOc1cc(C(F)(F)F)ccc1CNC(=O)C(C)c1ccc(NS(C)(=O)=O)c(F)c1 (stereo not given) | – |
| 13.9 | C[C@@H](C(=O)NCc1ccc(C(F)(F)F)cc1SC1CCCCC1)c1ccc(NS(C)(=O)=O)c(F)c1 | – |
| 1.4 | CC(C)CCSc1cc(C(F)(F)F)ccc1CNC(=O)C(C)c1ccc(NS(C)(=O)=O)c(F)c1 (stereo not given) | – |
| 0.4 | CC(C(=O)NCc1ccc(C(F)(F)F)cc1N1CCC(Cc2cccc(F)c2)CC1)c1ccc(NS(C)(=O)=O)c(F)c1 (stereo not given) | – |
| 0.4 | CC(C(=O)NCc1ccc(C(F)(F)F)nc1N1CCC(C(F)(F)F)CC1)c1ccc(NS(C)(=O)=O)c(F)c1 (stereo not given) | – |
| 1.9 | CCCCSc1cc(C(F)(F)F)ccc1CNC(=O)C(C)c1ccc(NS(C)(=O)=O)c(F)c1 (stereo not given) | – |
| 2.3 | COc1ccc(CSc2cc(C(F)(F)F)ccc2CNC(=O)C(C)c2ccc(NS(C)(=O)=O)c(F)c2)cc1 (stereo not given) | – |
| 0.6 | CC(C(=O)NCc1ccc(C(F)(F)F)nc1-c1ccc(F)c(Cl)c1)c1ccc(NS(C)(=O)=O)c(F)c1 (stereo not given) | – |
| 0.5 | CC(C(=O)NCc1ccc(C(F)(F)F)cc1SC1CCCCC1)c1ccc(NS(C)(=O)=O)c(F)c1 (stereo not given) | – |
| 0.9 | CC(C(=O)NCc1ccc(C(F)(F)F)cc1SCc1ccccc1Cl)c1ccc(NS(C)(=O)=O)c(F)c1 (stereo not given) | – |
| 0.3 | C[C@H](C(=O)NCc1ccc(C(F)(F)F)cc1SC1CCCCC1)c1ccc(NS(C)(=O)=O)c(F)c1 | IC50 [2]: 7.3 nM; Activity [3]: Non-toxic; Activity [4]: Dose-dependent effect; inhibition in vivo at 3 mg/kg [5]: 57%; Ki [7]: 0.03 nM; IC50 [8]: 20.4 nM |
| 0.9 | CC1CCN(c2cc(C(F)(F)F)ccc2CNC(=O)C(C)c2ccc(NS(C)(=O)=O)c(F)c2)CC1 (stereo not given) | – |
| 3.2 | CC(C(=O)NCc1ccc(C(F)(F)F)cc1SCc1ccco1)c1ccc(NS(C)(=O)=O)c(F)c1 (stereo not given) | – |
| 0.6 | CC(C(=O)NCc1ccc(C(F)(F)F)cc1-c1ccc(F)c(Cl)c1)c1ccc(NS(C)(=O)=O)c(F)c1 (stereo not given) | – |
| 2 | CCCOc1cc(C(F)(F)F)ccc1CNC(=O)C(C)c1ccc(NS(C)(=O)=O)c(F)c1 (stereo not given) | – |
| 0.8 | CC(C)COc1cc(C(F)(F)F)ccc1CNC(=O)C(C)c1ccc(NS(C)(=O)=O)c(F)c1 (stereo not given) | – |
| 3.9 | CC(C(=O)NCc1ccc(C(F)(F)F)cc1N1CCN(c2cccc(C(F)(F)F)c2)CC1)c1ccc(NS(C)(=O)=O)c(F)c1 (stereo not given) | – |
| 1.8 | CCCCCCSc1cc(C(F)(F)F)ccc1CNC(=O)C(C)c1ccc(NS(C)(=O)=O)c(F)c1 (stereo not given) | – |
| 0.5 | CC(C(=O)NCc1ccc(C(F)(F)F)cc1SCc1ccccc1)c1ccc(NS(C)(=O)=O)c(F)c1 (stereo not given) | – |
| – | CC(C(=O)NCc1ccc(C(F)(F)F)cc1SCCCO)c1ccc(NS(C)(=O)=O)c(F)c1 (stereo not given) | Ki ([1]; cho): Not Active |
